Test results reported in US20220339135A1, “COMPOSITIONS AND METHODS FOR MODULATING AN INFLAMMATORY RESPONSE” (Enzychem Lifesciences Corporation, priority 2019, published 2022).

Tests used:
Type in all cases: cell-based
[1] = tested on: intracellular ROS in Raw264.7 cells; assay: LPS-induced intracellular ROS production (CM-H2DCFDA); details: LPS/PLAG treatment
Method: Raw264.7 cells were divided into two groups: 1) LPS treated group and 2) LPS/PLAG treated group. For LPS treated group, cells were stimulated with LPS (100 ng/ml) for 0, 15, 30, 45, 60, 75, 90, 105, 120 minutes. For LPS/PLAG treatment, cells were pre-incubated with PLAG (100 ng/ml) for 1 hour and then stimulated with LPS (100 ng/ml) for 0, 15, 30, 45, 60, 75, 90, 105, 120 minutes. To detect intracellular ROS, cells were treated with […]CM-H2DCFDA (Invitrogen, Carlsbad, Calif., USA) for 30 minutes before LPS treatment for LPS treated group and before PLAG treatment for LPS/PLAG treated group. For confocal microscopy analysis, cells were washed with PBS and mounted in DAPI-containing fluorescence microscopy mounting medium (Invitrogen). Samples were analyzed with a laser scanning confocal microscope (Carl Zeiss, Oberkochen, Germany).
Raw264.7 cells were divided into two groups: 1) LPS treated group and 2) LPS/PLAG treated group. For the LPS treated group, cells were treated with 100 μg/ml of DMSO (as solvent control) for 1 hour and treated with LPS (100 ng/ml) for 15, 30, 60, and 120 minutes. For LPS/PLAG treated group, cells were treated with PLAG (100 μg/ml) for 1 hour and treated with LPS (100 ng/ml) for 15, 30, 60, and 120 minutes. […] These were analyzed by confocal microscopy. […]

[2] = tested on: Rac1, p47phox in BMDMs and THP-1 cells; assay: Rac1 membrane translocation and p47phox phosphorylation
Method: Total cells were lysed on ice for 30 minutes in RIPA buffer composed of 50 mM Tris-HCl (pH 7.4), 150 mM NaCl, 2 mM EDTA, 1% NP-40, 0.5% sodium deoxycholate, 0.1% SDS, 1 mM phenylmethylsulfonyl fluoride (PMSF), 10 mM sodium fluoride, 2 mM sodium pyrophosphate, 10 mM β-glycerophosphate, 10 mM sodium orthovanadate. Membrane-and-cytoplasmic protein fractions of cultured cells were obtained with Mem-PER Plus Membrane Protein Extraction Kit (Thermo Scientific, MA, USA) according to the manufacturer's instructions. The lysates were centrifuged at 13,000 rpm for 20 minutes at 4° C. and protein concentrations were determined using the Bradford assay (Bio-Rad Laboratories). Denatured samples were mixed with a 5×SDS-PAGE loading buffer and heated to 100° C. for 15 min. The samples were separated on the 10% of SDS-PAGE gel and transferred to polyvinylidene difluoride (PVDF) membranes (Merck Millipore Corporation, MA, USA). Membranes were blocked with 5% non-fat milk in PBS (10 mM Tris-HCl, pH7.5, 150 mM NaCl) for 1 h and probed with primary antibodies against ERK1/2, phospho-ERK1/2, P38, phospho-P38, SAPK/JNK, phospho-SAPK/JNK, Na, K-ATPase, α-Tubulin, and β-actin from Cell Signaling Technology (MA, USA), Rac1 from Merck Millipore Corporation), p47phox and phospho-p47phox from Invitrogen, adenosine receptor A1 from Abcam, β arrestin-1 from Santa Cruz Technology for overnight at 4° C. […]

[3] = tested on: ERK, JNK, p38MAPK in differentiated HaCaT cells; assay: IMQ-induced MAPK phosphorylation, western blot; details: PLAG 1, 10, 100 μg/ml, dose-dependent
Method: Differentiated HaCaT cells were divided into three groups: 1) control (non-treated) group, 2) IMQ treated group, and 3) IMQ/PLAG treated group. For IMQ treated group, cells were stimulated with IMQ (5 μg/ml) for 0, 20, 60 minutes. For IMQ/PLAG treated group, cells were pre-incubated with PLAG (1, 10, 100 μg/ml) for 1 hour and then stimulated with IMQ (5 μg/ml) for an hour. Then, cells were harvested. Cells were ruptured with 1×RIPA lysis buffer (Cell Signaling Technology) containing the protease inhibitor (Roche, Indianapolis, Ind., USA), and phosphatase inhibitor (Thermo Fisher Scientific Inc.) on ice. The cell lysates were then clarified by centrifugation and samples were analyzed on polyacrylamide gels. Each sample was separated by sodium dodecyl sulfate-polyacrylamide gel electrophoresis (SDS-PAGE) on polyacrylamide gels and the proteins were blotted onto a PVDF membrane (Bio-Rad). The membrane was blocked with 5% BSA (Gibco) in PBS containing 0.05% Tween-20 (Merck Millipore, Billerica, Mass., USA). The membrane was incubated with antibodies against phosphor-ERK (Thr202/Tyr204), ERK, phosphor-JNK (Thr183/Tyr185), SAPK/JNK, phosphor-p38MAPK (Thr180/thr182), and p38MAPK, overnight at 4° C. All antibodies were purchased from Cell signaling technology. Target proteins were detected with Immobilon Western Chemiluminescent HRP Substrate (Merck Millipore).

[4] = tested on: MIP-2 and IFN-β in LPS treated macrophage cells; assay: MIP-2 and IFN-β in LPS treated macrophage cells

## CCCCC/C=C\C/C=C\CCCCCCCC(=O)OC(COC(C)=O)COC(=O)CCCCCCCCCCCCCCC (racemic) [PLAG, 1-palmitoyl-2-linoleoyl-3-acetylglycerol]
[1]
  ROS production initiated: 15 min
  return to homeostatic levels of intracellular ROS: 60 min
[2]; dose-dependent
  gemcitabine-induced p47phox phosphorylation: effectively inhibited
[2]; gemcitabine-stimulated THP-1 cells
  translocation of Rac1 from the cytosol to the membrane: significantly inhibited
[3]
  IMQ-induced phosphorylation of ERK, JNK, p38 MAPK: attenuated
[4]; LPL or GPIHBP1 silenced cell
  modulation of chemokine MIP-2 in silenced cell: not capable of modulating
[4]; LPS treated macrophage cells
  chemokine MIP-2 and cytokine IFN-β: effectively down-regulates
